The text below walks through data of patent US20260028352A1, “MACROCYCLIC IMIDAZO [1,2-B] PYRIDAZINE DERIVATIVE, PREPARATION METHOD THEREFOR, AND USE THEREOF” (SUZHOU LANGRUI BIOPHARMACEUTICAL CO., LTD., priority 2022, published 2026).

In assay [1] the test system is Ba/F3-TPM3-NTRK1-G667C cells. The assay can be described thus: Growth inhibition of Ba/F3-TPM3-NTRK1-G667C cells (Cell Titer-Glo). The class given is cell-based. To be noted: 72 hours, CTG; read-out: inhibitory activity IC50 Ba/F3-TPM3-NTRK1-G667C. In short, it runs like this: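 Ba/F3 cells were exposed for 72 hours to serially DMSO-diluted compound at a top final concentration of 10 μM. Viability was read by Cell Titer-Glo luminescence after the plate equilibrated 30 min at room temperature and was then shaken 1 hour in the dark at room temperature.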
On the technique in general: ATP-based viability assays read luminescence as a measure of living cells.

The next assay addresses TRKA^WT kinase (Homo sapiens (Human), UniProt P04629). Nature of the assay: Inhibitory activity against TRKA WT kinase (Caliper mobility shift). To be noted: in vitro kinase assay. The class given is biochemical. On the procedure:
(§1) Kinase Assay Process: 1× Kinase buffer was prepared. […] The compounds were serially diluted into 10 concentrations ([…], 0.15, and 0.05 nM) using a Precision 3-fold dilution method. By using the Echo550 liquid handler, 250 nL of the 100-fold final concentration compound was transferred to an OptiPlate-384F plate. a 2.5× final concentration kinase solution was prepared using 1× Kinase buffer. 10 μL of the 2.5× final concentration kinase solution was added to the compound wells and the positive control wells, and 10 μL of 1× Kinase buffer was added to the negative control wells. The plate was centrifuged at 1000 rpm for 30 seconds, vortexed for mixing, and then incubated at room temperature for 10 minutes. A mixture of 5/3× final concentration of ATP and Kinase Substrate 22 was prepared using 1× Kinase buffer. 15 μL of the mixture of the 5/3× final concentration ATP and the substrate was added to initiate the reaction, the 384-well plate was centrifuged at 1000 rpm for 30 seconds, vortexed for mixing, and incubated at room temperature for the required time. 30 μL of the termination solution was added to stop the kinase reaction, the plate was centrifuged at 1000 rpm for 30 seconds, and vortexed for mixing. The conversion rate was measured using the Caliper EZ Reader.
(§2) Data Analysis: the inhibition rate was calculated as follows:
(§3) % Inhibition=(Conversion %_max−conversion %_sample)÷(Conversion %_max−conversion %_min)×100
(§4) Conversion %_sample is the conversion rate reading for the sample; Conversion %_min is the average value of the negative control wells, representing the conversion rate for wells without enzyme activity: Conversion %_max is the average value of the positive control wells, representing the conversion rate for wells without compound inhibition. A dose-response curve was fitted using the log concentration of the compound as the X-axis and the percentage inhibition as the Y-axis. The log(inhibitor) vs. response-variable slope of the GraphPad Prism 5 software was used to fit the dose-response curve, and the IC50 value for each compound was obtained. The calculation formula is:
(§5) Y=Bottom+(Top−Bottom)/(1+10^((Log IC50−X)*HillSlope)).
(§6) wherein X represents the concentration of the compound to be tested; Y represents the inhibition rate at the concentration X: Top refers to the maximum response: Bottom refers to the baseline response; HillSlope refers to the slope of the curve (i.e., the gradient).

In the next assay the target is TRKA^F589L kinase (Homo sapiens (Human), UniProt P04629, F589L). The assay can be described thus: Inhibitory activity against TRKA(F589L) kinase (Caliper mobility shift). Format: biochemical. To be noted: in vitro kinase assay. On the procedure:
as §1, §2, §3, §4, §5, §6

Assay [2] deals with Ba/F3-TPM3-NTRK1-G595R cells. Nature of the assay: Growth inhibition of Ba/F3-TPM3-NTRK1-G595R cells (Cell Titer-Glo). The class given is cell-based. To be noted: 72 hours, CTG; read-out: inhibitory activity IC50 Ba/F3-TPM3-NTRK1-G595R. On the procedure:
(§7) Then the solutions were subjected to a gradient dilution with DMSO: a clean, sterile V-bottom 96-well microplate was placed in the biological safety cabinet. First, 4 μL of DMSO was added to well B2 and 10 μL of DMSO was added to wells B3-B11 respectively; Next, 6 μL of the 10 mM solution was added to well B2. The microplate was pipetted up and down 10 times for mixing. […] Mixing was performed by pipetting up and down 10 times. The solution was diluted in order until well B10. only DMSO was added to well B11 (no compound).
(§8) 6× Compound Solution Preparation (6-fold dilution, × represents dilution factor): (Initial final concentration: 10 μM), a clean, sterile V-bottom 96-well microplate was placed in the biological safety cabinet. 99 μL of cell culture medium was added to each well from B2 to G11. By using a 12-channel pipettor, 1 μL of the compound solution prepared in the previous step was added into the corresponding wells. The solutions were pipetted up and down 10 times to mix the solutions. The highest concentration of compound in this step was 60 μM.
(§9) Treatment of Cells: the above-prepared cell culture plate was taken out of the incubator. 20 μL of compound solution from each well was added to the corresponding cell culture wells. The lowest pipetting speed was used and touching the bottom of the plate was avoided. The culture plate was gently shaked to mix the compound solution, then the plate was returned to the incubator for further culture for 72 hours.
(§10) The highest treatment concentration of the compound was 10 μM. After 72 hours of treatment, the Cell Titer-Glo (CTG) assay was performed. First, the cell culture plate was removed from the CO2 incubator and allowed to stand at room temperature for 30 minutes to ensure uniform temperature of the plate. The pre-prepared Cell Titer-Glo reagent (following the manufacturer's instructions) was taken and allowed to stand at room temperature to thaw. 60 μL of Cell Titer-Glo reagent was added to each well containing cells. The cells were incubated on a horizontal shaker in a dark place at 225 rpm for 1 hour at room temperature. Then, a Tecan Spark microplate reader was used to read the plate using chemiluminescence according to the manufacturer's instructions.

In assay [3] the test system is Ba/F3-TPM3-NTRK1-WT cells. Nature of the assay: Growth inhibition of Ba/F3-TPM3-NTRK1-WT cells (Cell Titer-Glo). The class given is cell-based. To be noted: 72 hours, CTG; read-out: inhibitory activity IC50 Ba/F3-TPM3-NTRK1-WT. The protocol:
as §7, §8, §9, §10

TRKA^WT kinase, sequence (P04629 33-796): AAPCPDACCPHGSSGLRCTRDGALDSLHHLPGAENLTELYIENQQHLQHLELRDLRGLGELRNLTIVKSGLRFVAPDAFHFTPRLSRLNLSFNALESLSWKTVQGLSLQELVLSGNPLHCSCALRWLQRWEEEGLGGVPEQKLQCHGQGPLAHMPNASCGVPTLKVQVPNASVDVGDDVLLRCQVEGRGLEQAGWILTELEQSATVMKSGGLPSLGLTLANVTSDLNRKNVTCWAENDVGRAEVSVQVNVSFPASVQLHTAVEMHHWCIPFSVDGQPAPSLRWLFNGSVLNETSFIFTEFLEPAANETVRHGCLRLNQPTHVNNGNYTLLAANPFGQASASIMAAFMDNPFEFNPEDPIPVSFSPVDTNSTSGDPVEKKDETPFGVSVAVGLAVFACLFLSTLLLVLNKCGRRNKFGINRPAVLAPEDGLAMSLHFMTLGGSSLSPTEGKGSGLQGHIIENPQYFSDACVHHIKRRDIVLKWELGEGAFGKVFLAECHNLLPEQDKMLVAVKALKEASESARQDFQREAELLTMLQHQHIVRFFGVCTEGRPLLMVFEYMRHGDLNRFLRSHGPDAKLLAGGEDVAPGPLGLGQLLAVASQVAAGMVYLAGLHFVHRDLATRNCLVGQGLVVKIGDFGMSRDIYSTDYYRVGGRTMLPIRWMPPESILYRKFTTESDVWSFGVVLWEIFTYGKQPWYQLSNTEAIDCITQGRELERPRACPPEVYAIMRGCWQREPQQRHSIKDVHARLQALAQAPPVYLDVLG
TRKA^F589L kinase, sequence (P04629 33-796 F589L): as the sequence (P04629 33-796) above, with F557L counted along it

For the compound `C[C@H]1Nc2ccc3ncc(n3n2)-c2cc(ccn2)COc2ccc(F)cc21` [Example I-14, (R)-(E)-5^4-fluoro-6-methyl-4-oxa-7-aza-1(3,6)-imidazo[1,2-b]pyridazina-2(2,4)-pyridina-5(1,2)-benzenacycloheptaphane], the IC50 is under 100 nM in assay [1], under 3 nM on TRKA^WT kinase and under 5 nM on TRKA^F589L kinase.

For the compound `C[C@H]1Nc2ccc3ncc(n3n2)-c2cc(ccn2)COc2c(F)cc(F)cc21` [Example I-16, (R)-(E)-5^4,5^6-difluoro-6-methyl-4-oxa-7-aza-1(3,6)-imidazo[1,2-b]pyridazine-2(2,4)-pyridina-5(1,2)-benzenacycloheptaphane], the results for the IC50 (in assay [1]; on TRKA^WT kinase; at TRKA^F589L kinase) were under 100 nM, under 3 nM and under 5 nM, respectively.

For `C[C@H]1Nc2ccc3ncc(n3n2)-c2cc(ccn2)COc2ccccc21` [Example I-18, (R)-(E)-6-methyl-4-oxa-7-aza-1(3,6)-imidazo[1,2-b]pyridazine-2(2,4)-pyridina-5(1,2)-benzenacycloheptaphane], the results for the IC50 (in assay [1]; on TRKA^WT kinase; on TRKA^F589L kinase) were under 100 nM, under 3 nM and under 5 nM, respectively.

On to `C[C@H]1Nc2ccc3ncc(n3n2)-c2cc(ccn2)COc2ncccc21` [Example I-20, (R)-(E)-6-methyl-4-oxa-7-aza-1(3,6)-imidazo[1,2-b]pyridazina-2(2,4), 5(2,3)-dipyridinacycloheptaphane], for which the IC50 was under 100 nM in assay [1], under 3 nM at TRKA^WT kinase and under 5 nM at TRKA^F589L kinase.

As to `C[C@H]1Nc2ccc3ncc(n3n2)-c2cncc(c2)COc2ccc(F)cc21` [Example I-22, (R)-(E)-5^4-fluoro-6-methyl-4-oxa-7-aza-1(3,6)-imidazo[1,2-b]pyridazina-2(3,5)-pyridina-5(1,2)-benzenacycloheptaphane], the IC50 in assay [1] was under 100 nM; at TRKA^WT kinase, under 3 nM; on TRKA^F589L kinase, under 5 nM.

`C[C@H]1Nc2ccc3ncc(n3n2)-c2cc(ccn2)OCc2ncc(F)cc21` [Example I-24, (R)-(E)-5^5-fluoro-6-methyl-3-oxa-7-aza-1(3,6)-imidazo[1,2-b]pyridazina-2(2,4), 5(2,3)-dipyridinacycloheptaphane]: the IC50 in assay [1] is under 100 nM; on TRKA^WT kinase it was under 3 nM; at TRKA^F589L kinase, under 5 nM.

In the case of `C[C@H]1Nc2ccc3ncc(n3n2)-c2cc(ncn2)COc2ccccc21` [Example I-26, (R)-(E)-6-methyl-4-oxa-7-aza-1(3,6)-imidazo[1,2-b]pyridazina-2(4,6)-pyrimidina-5(1,2)-benzenacycloheptaphane], the IC50 was under 100 nM in assay [1], under 3 nM on TRKA^WT kinase and under 5 nM on TRKA^F589L kinase.

Take `C[C@H]1Nc2ccc3ncc(n3n2)-c2cc(ccn2)CCOc2ccccc21` [Example I-28, (4R,E)-4-methyl-6-oxa-3-aza-2(3,6)-imidazo[1,2-b]pyridazina-1(2,4)-pyridina-5(1,2)-benzenacyclooctaphane]: the IC50 in assay [1] was under 100 nM; on TRKA^WT kinase, under 3 nM; on TRKA^F589L kinase, under 5 nM.

On to `C[C@H]1Nc2ccc3ncc(n3n2)-c2cc(ccn2)OCc2ccc(F)cc21` [Example I-30, (R)-(E)-5^4-fluoro-6-methyl-3-oxa-7-aza-1(3,6)-imidazo[1,2-b]pyridazina-2(2,4)-pyridina-5(1,2)-benzenacycloheptaphane], for which the IC50 is under 100 nM in assay [1], under 3 nM on TRKA^WT kinase and under 5 nM at TRKA^F589L kinase.

For `Fc1ccc2c(c1)[C@H]1C[C@H](F)CN1c1ccc3ncc(n3n1)-c1cc(ncn1)CCO2` [Example I-70, (3^2R,3^4S,E)-3^4,4^5-difluoro-5-oxa-2(3,6)-imidazo[1,2-b]pyridazina-1(4,6)-pyrimidina-3(1,2)-pyrrolidina-4(1,2)-benzenacycloheptaphane], the IC50 in assay [2] stood at 1.1 nM; in assay [1] it was 4.6 nM; in assay [3] it was 0.12 nM.

As for `Fc1cnc2c(c1)[C@H]1C[C@H](F)CN1c1ccc3ncc(n3n1)-c1cc(ncn1)CCO2` [Example I-72, (3^2R,3^4S,E)-3^4,4^5-difluoro-5-oxa-2(3,6)-imidazo[1,2-b]pyridazina-1(4,6)-pyrimidina-4(3,2)-pyridina-3(1,2)-pyrrolidinacycloheptaphane], the IC50 in assay [2] is 1.5 nM; in assay [1] it was 7.4 nM; in assay [3], 0.07 nM.

Regarding `Fc1ccc2c(c1)[C@H]1C[C@H](F)CN1c1ccc3ncc(n3n1)-c1nccc(n1)CCO2` [Example I-86, (3^2R,3^4S,E)-3^4,4^5-difluoro-5-oxa-2(3,6)-imidazo[1,2-b]pyridazina-1(2,4)-pyrimidina-3(1,2)-pyrrolidina-4(1,2)-benzenacycloheptaphane], the IC50 in assay [2] worked out at 2.3 nM; in assay [1], 13.9 nM; in assay [3], 0.25 nM.

For the compound `Fc1ccc2c(c1)[C@H]1C[C@H](F)CN1c1ccc3ncc(n3n1)-c1cc(cnn1)CCO2` [Example I-92, (3^2R,3^4S,E)-3^4,4^5-difluoro-5-oxa-2(3,6)-imidazo[1,2-b]pyridazina-1(3,5)-pyridazina-3(1,2)-pyrrolidina-4(1,2)-benzenacycloheptaphane], the figures for the IC50 in assay [2], in assay [1] and in assay [3] were 0.6 nM, 4.3 nM and 0.18 nM, respectively.

Consider `Fc1cnc2c(c1)[C@H]1C[C@H](F)CN1c1ccc3ncc(n3n1)-c1cc(cnn1)CCO2` [Example I-94, (3^2R,3^4S,E)-3^4,4^5-difluoro-5-oxa-2(3,6)-imidazo[1,2-b]pyridazina-1(3,5)-pyridazina-4(3,2)-pyridina-3(1,2)-pyrrolidinacycloheptaphane], for which the IC50 amounted to 1 nM in assay [2], 2.5 nM in assay [1] and 0.09 nM in assay [3].

As to `C[C@H]1Cc2ccnc(n2)-c2cnc3ccc(nn23)N2C[C@@H](F)C[C@@H]2c2cc(F)cnc2O1` [Example I-96, (3^2R,3^4S,6S,E)-3^4,4^5-difluoro-6-methyl-5-oxa-2(3,6)-imidazo[1,2-b]pyridazina-1(2,4)-pyrimidina-4(3,2)-pyridina-3(1,2)-pyrrolidinacycloheptaphane], the IC50 in assay [2] stood at 1.4 nM; in assay [1], 3.7 nM; in assay [3], 0.11 nM.

In the case of `C[C@@H]1CCc2ncc(F)cc2[C@H]2CCCN2c2ccn3ncc(c3n2)C(=O)N1` [LOXO-195, reference compound], the IC50 is 10 nM in assay [2], 169 nM in assay [1] and 3.07 nM in assay [3].
